The values that follow come from ChEMBL document CHEMBL1151192, “Phorbasterones A-D, cytotoxic nor-ring A steroids from the sponge Phorbas amaranthus” (J Nat Prod, 2004).

Values after ≈ are worked out from the molar mass of the structure shown.

This test deals with HCT-116. Kind of test: Cytotoxicity against human HCT116 cells after 72 hrs by MTS assay. The class given is functional, cell-based. The settings on record: HCT-116, 72 h. A general note: Tetrazolium dyes change colour on reduction, which living cells bring about.

The term IC50 denotes the concentration that gives 50% inhibition. A high value points to weaker potency in that assay. For the compound `CCC(/C=C/[C@@H](C)[C@H]1CC[C@H]2[C@@H]3CC=C4C(=O)[C@](O)(C(=O)OC)C[C@]4(C)[C@H]3CC[C@]12C)C(C)C` (mixture of isomers) [PHORBASTERONE C], the IC50 is 1 µg/mL.
In the case of `COC(=O)[C@]1(O)C[C@@]2(C)C(=CC[C@H]3[C@@H]4CC[C@H]([C@H](C)/C=C/C(C)C(C)C)[C@@]4(C)CC[C@@H]32)C1=O` (some centres undefined) [PHORBASTERONE A] it was 1 µg/mL (≈ 2.19 µM); in that of `COC(=O)[C@]1(O)C[C@@]2(C)C(=CC[C@H]3[C@@H]4CC[C@H]([C@H](C)CCCC(C)C)[C@@]4(C)CC[C@@H]32)C1=O` [PHORBASTERONE B], 1 µg/mL (≈ 2.25 µM); in that of `CCC(CC[C@@H](C)[C@H]1CC[C@H]2[C@@H]3CC=C4C(=O)[C@](O)(C(=O)OC)C[C@]4(C)[C@H]3CC[C@]12C)C(C)C` (mixture of isomers) [PHORBASTERONE D], 1 µg/mL.
